Assay results reported in PubChem BioAssay AID1259407 (Chemical Carcinogenesis Research Information System (CCRIS), 2018).
Calls of active or inactive are those of the source. The rule behind the calls is not given here.

Tested on: CCRIS mutagenicity, Ames/micronucleus/aberration tests
Assay: CCRIS mutagenicity studies

Which results are given for `C=CC(=O)OC(C)(C)C`?
mutagenic call (Test System: AMES SALMONELLA TYPHIMURIUM, Strain/Indicator: TA98, Metabolic Activation: NONE, Method: STANDARD PLATE): inactive; negative; mutagenic call (Test System: AMES SALMONELLA TYPHIMURIUM, Strain/Indicator: TA98, Metabolic Activation: RAT, LIVER, S-9, AROCLOR 1254, Method: STANDARD PLATE): inactive; negative; mutagenic call (Test System: AMES SALMONELLA TYPHIMURIUM, Strain/Indicator: TA98, Metabolic Activation: RAT, LIVER, S-9, SODIUM PHENOBARBITAL, Method: STANDARD PLATE): inactive; negative; mutagenic call (Test System: AMES SALMONELLA TYPHIMURIUM, Strain/Indicator: TA100, Metabolic Activation: NONE, Method: STANDARD PLATE): inactive; negative; mutagenic call (Test System: AMES SALMONELLA TYPHIMURIUM, Strain/Indicator: TA100, Metabolic Activation: RAT, LIVER, S-9, AROCLOR 1254, Method: STANDARD PLATE): inactive; negative; mutagenic call (Test System: AMES SALMONELLA TYPHIMURIUM, Strain/Indicator: TA100, Metabolic Activation: RAT, LIVER, S-9, SODIUM PHENOBARBITAL, Method: STANDARD PLATE): inactive; negative; mutagenic call (Test System: AMES SALMONELLA TYPHIMURIUM, Strain/Indicator: TA1535, Metabolic Activation: NONE, Method: STANDARD PLATE): inactive; negative; mutagenic call (Test System: AMES SALMONELLA TYPHIMURIUM, Strain/Indicator: TA1535, Metabolic Activation: RAT, LIVER, S-9, AROCLOR 1254, Method: STANDARD PLATE): inactive; negative; mutagenic call (Test System: AMES SALMONELLA TYPHIMURIUM, Strain/Indicator: TA1535, Metabolic Activation: RAT, LIVER, S-9, SODIUM PHENOBARBITAL, Method: STANDARD PLATE): inactive; negative; mutagenic call (Test System: AMES SALMONELLA TYPHIMURIUM, Strain/Indicator: TA1537, Metabolic Activation: NONE, Method: STANDARD PLATE): inactive; negative; mutagenic call (Test System: AMES SALMONELLA TYPHIMURIUM, Strain/Indicator: TA1537, Metabolic Activation: RAT, LIVER, S-9, AROCLOR 1254, Method: STANDARD PLATE): inactive; negative; mutagenic call (Test System: AMES SALMONELLA TYPHIMURIUM, Strain/Indicator: TA1537, Metabolic Activation: RAT, LIVER, S-9, SODIUM PHENOBARBITAL, Method: STANDARD PLATE): inactive; negative; mutagenic call (Test System: AMES SALMONELLA TYPHIMURIUM, Strain/Indicator: TA1538, Metabolic Activation: NONE, Method: STANDARD PLATE): inactive; negative; mutagenic call (Test System: AMES SALMONELLA TYPHIMURIUM, Strain/Indicator: TA1538, Metabolic Activation: RAT, LIVER, S-9, AROCLOR 1254, Method: STANDARD PLATE): inactive; negative; mutagenic call (Test System: AMES SALMONELLA TYPHIMURIUM, Strain/Indicator: TA1538, Metabolic Activation: RAT, LIVER, S-9, SODIUM PHENOBARBITAL, Method: STANDARD PLATE): inactive; negative

Which mutagenic call (End Point: IN VITRO CHROMOSOMAL ABERRATIONS, Test System: CHO CELLS, Metabolic Activation: NONE) does the source give for `[CH3][Hg][Cl]` here?
Its mutagenic call is “active; positive (structural changes)”.

What about the mutagenic call (End Point: IN VITRO MICRONUCLEUS, Test System: CHL/IU CELLS, Metabolic Activation: NONE) of the same molecule?
The mutagenic call was “active; positive”.

What about the mutagenic call (End Point: IN VITRO MICRONUCLEUS, Test System: HUMAN PERIPHERAL LYMPHOCYTES, Metabolic Activation: NONE) of the same molecule?
The mutagenic call was “active; positive”.

And the mutagenic call (End Point: IN VITRO MICRONUCLEUS, Test System: HUMAN PERIPHERAL LYMPHOCYTES, Metabolic Activation: NONE, Method: FISH (CENTROMERIC SIGNAL CONTENT))?
Its mutagenic call is “active; positive”.

What about the mutagenic call (Test System: AMES SALMONELLA TYPHIMURIUM, Strain/Indicator: TA97, Metabolic Activation: HAMSTER, LIVER, S-9, AROCLOR 1254 (10 OR 30%), Method: PREINCUBATION) of the same molecule?
The mutagenic call was “inactive; negative”.

What about the mutagenic call (Test System: AMES SALMONELLA TYPHIMURIUM, Strain/Indicator: TA97, Metabolic Activation: NONE, Method: PREINCUBATION) of the same molecule?
Its mutagenic call is “inactive; negative”.

And the mutagenic call (Test System: AMES SALMONELLA TYPHIMURIUM, Strain/Indicator: TA97, Metabolic Activation: RAT, LIVER, S-9, AROCLOR 1254 (10 OR 30%), Method: PREINCUBATION)?
The mutagenic call was “inactive; negative”.

And the mutagenic call (Test System: AMES SALMONELLA TYPHIMURIUM, Strain/Indicator: TA98, Metabolic Activation: HAMSTER, LIVER, S-9, AROCLOR 1254 (10 OR 30%), Method: PREINCUBATION)?
The mutagenic call was “inactive; negative”.

And the mutagenic call (Test System: AMES SALMONELLA TYPHIMURIUM, Strain/Indicator: TA98, Metabolic Activation: NONE, Method: PREINCUBATION)?
Its mutagenic call is “inactive; negative”.

And the mutagenic call (Test System: AMES SALMONELLA TYPHIMURIUM, Strain/Indicator: TA98, Metabolic Activation: RAT, LIVER, S-9, AROCLOR 1254 (10 OR 30%), Method: PREINCUBATION)?
The mutagenic call was “inactive; negative”.

And the mutagenic call (Test System: AMES SALMONELLA TYPHIMURIUM, Strain/Indicator: TA100, Metabolic Activation: HAMSTER, LIVER, S-9, AROCLOR 1254 (10 OR 30%), Method: PREINCUBATION)?
Its mutagenic call is “inactive; negative”.

And the mutagenic call (Test System: AMES SALMONELLA TYPHIMURIUM, Strain/Indicator: TA100, Metabolic Activation: NONE, Method: PREINCUBATION)?
Its mutagenic call is “inactive; negative”.

What about the mutagenic call (Test System: AMES SALMONELLA TYPHIMURIUM, Strain/Indicator: TA100, Metabolic Activation: RAT, LIVER, S-9, AROCLOR 1254 (10 OR 30%), Method: PREINCUBATION) of the same molecule?
The mutagenic call was “inactive; negative”.

What about the mutagenic call (Test System: AMES SALMONELLA TYPHIMURIUM, Strain/Indicator: TA1535, Metabolic Activation: HAMSTER, LIVER, S-9, AROCLOR 1254 (10 OR 30%), Method: PREINCUBATION) of the same molecule?
Its mutagenic call is “inactive; negative”.

And the mutagenic call (Test System: AMES SALMONELLA TYPHIMURIUM, Strain/Indicator: TA1535, Metabolic Activation: NONE, Method: PREINCUBATION)?
The mutagenic call was “inactive; negative”.

What about the mutagenic call (Test System: AMES SALMONELLA TYPHIMURIUM, Strain/Indicator: TA1535, Metabolic Activation: RAT, LIVER, S-9, AROCLOR 1254 (10 OR 30%), Method: PREINCUBATION) of the same molecule?
Its mutagenic call is “inactive; negative”.

And the mutagenic call (Test System: AMES SALMONELLA TYPHIMURIUM, Strain/Indicator: TA1537, Metabolic Activation: HAMSTER, LIVER, S-9, AROCLOR 1254 (10 OR 30%), Method: PREINCUBATION)?
The mutagenic call was “inactive; negative”.

What about the mutagenic call (Test System: AMES SALMONELLA TYPHIMURIUM, Strain/Indicator: TA1537, Metabolic Activation: NONE, Method: PREINCUBATION) of the same molecule?
Its mutagenic call is “inactive; negative”.

What about the mutagenic call (Test System: AMES SALMONELLA TYPHIMURIUM, Strain/Indicator: TA1537, Metabolic Activation: RAT, LIVER, S-9, AROCLOR 1254 (10 OR 30%), Method: PREINCUBATION) of the same molecule?
Its mutagenic call is “inactive; negative”.

And the mutagenic call (Test System: E. COLI, Strain/Indicator: WP2 UVRA, Metabolic Activation: NONE, Method: SPOT TEST)?
Its mutagenic call is “active; positive”.

And the mutagenic call (Test System: E. COLI, Strain/Indicator: WP2 UVRA, Metabolic Activation: NONE, Method: STANDARD PLATE)?
The mutagenic call was “active; positive”.

How did the mutagenic call (Test System: AMES SALMONELLA TYPHIMURIUM, Strain/Indicator: TA98) turn out when `CC(C)=CC1C(C(=O)OCN2C(=O)C3=C(CCCC3)C2=O)C1(C)C` (stereo not given) was run?
The mutagenic call was “active; positive”.

What about the mutagenic call (Test System: AMES SALMONELLA TYPHIMURIUM, Strain/Indicator: TA98, Metabolic Activation: NONE) of the same molecule?
Its mutagenic call is “active; positive”.

What about the mutagenic call (Test System: AMES SALMONELLA TYPHIMURIUM, Strain/Indicator: TA98, Metabolic Activation: NONE, Method: MICROSUSPENSION) of the same molecule?
Its mutagenic call is “inactive; negative”.

What about the mutagenic call (Test System: AMES SALMONELLA TYPHIMURIUM, Strain/Indicator: TA98, Metabolic Activation: S-9, Method: MICROSUSPENSION) of the same molecule?
The mutagenic call was “inactive; negative”.

And the mutagenic call (Test System: AMES SALMONELLA TYPHIMURIUM, Strain/Indicator: TA100)?
The mutagenic call was “active; positive”.

What about the mutagenic call (Test System: AMES SALMONELLA TYPHIMURIUM, Strain/Indicator: TA100, Metabolic Activation: NONE) of the same molecule?
The mutagenic call was “inactive; negative”.

And the mutagenic call (Test System: AMES SALMONELLA TYPHIMURIUM, Strain/Indicator: TA100, Metabolic Activation: NONE, Method: MICROSUSPENSION)?
Its mutagenic call is “inactive; negative”.

And the mutagenic call (Test System: AMES SALMONELLA TYPHIMURIUM, Strain/Indicator: TA100, Metabolic Activation: S-9, Method: MICROSUSPENSION)?
Its mutagenic call is “inactive; negative”.

With `O=[N+]([O-])C(Br)Br` as the molecule, how does the mutagenic call (Test System: Ames Salmonella typhimurium, Strain/Indicator: RSJ100, Metabolic Activation: None, Method: Standard plate) read?
The mutagenic call was “inactive; negative”.

What about the mutagenic call (Test System: Ames Salmonella typhimurium, Strain/Indicator: RSJ100, Metabolic Activation: Rat, Liver, S-9, Aroclor, Method: Standard plate) of the same molecule?
Its mutagenic call is “inactive; negative”.

And the mutagenic call (Test System: Ames Salmonella typhimurium, Strain/Indicator: TA98, Metabolic Activation: None, Method: Standard plate)?
Its mutagenic call is “inactive; negative”.

What about the mutagenic call (Test System: Ames Salmonella typhimurium, Strain/Indicator: TA98, Metabolic Activation: Rat, Liver, S-9, Aroclor, Method: Standard plate) of the same molecule?
The mutagenic call was “inactive; negative”.

What about the mutagenic call (Test System: Ames Salmonella typhimurium, Strain/Indicator: TA100, Metabolic Activation: None, Method: Standard plate) of the same molecule?
Its mutagenic call is “active; positive”.

What about the mutagenic call (Test System: Ames Salmonella typhimurium, Strain/Indicator: TA100, Metabolic Activation: Rat, Liver, S-9, Aroclor, Method: Standard plate) of the same molecule?
The mutagenic call was “active; positive”.

And the mutagenic call (Test System: Ames Salmonella typhimurium, Strain/Indicator: TA104, Metabolic Activation: None, Method: Standard plate)?
Its mutagenic call is “inactive; negative”.

And the mutagenic call (Test System: Ames Salmonella typhimurium, Strain/Indicator: TA104, Metabolic Activation: Rat, Liver, S-9, Aroclor, Method: Standard plate)?
The mutagenic call was “inactive; negative”.

And the mutagenic call (Test System: Ames Salmonella typhimurium, Strain/Indicator: TPT100, Metabolic Activation: None, Method: Standard plate)?
Its mutagenic call is “inactive; negative”.

Which mutagenic call (Test System: AMES SALMONELLA TYPHIMURIUM, Strain/Indicator: TM677, Metabolic Activation: NONE, Method: PREINCUBATION) does the source give for `O=C1C=C2c3ccccc3-c3cccc(c32)C1=O` here?
The mutagenic call was “active; positive”.

What about the mutagenic call (Test System: AMES SALMONELLA TYPHIMURIUM, Strain/Indicator: TM677, Metabolic Activation: RAT, LIVER, POSTMITOCHONDRIAL SUPERNATANT, AROCLOR 1254, Method: PREINCUBATION) of the same molecule?
Its mutagenic call is “active; positive”.
